Drawing on US7977512B2, “Amine derivative, and production method and use thereof” (Kureha Corporation, priority 2005, dated 2011), this text covers melting point and pest or weed control for 11 compounds.

Broadly, the melting point is the temperature of the solid-liquid transition.

SMILES strings stand for the structures. Structures can show the parent of a compound that is named as a salt.

System in one data set: not given
Assay: not given
Settings: not given
In turn, `CCCN(CCC)CCCCN(CCOC(C)=O)Cc1ccc(CN)cc1.Cl` came in with a melting point of 105 to 106 °C.
The same measure, in the same setting: the figure for `CCCN(CCC)CCCCNCc1ccc(C#N)cc1` (as salt: hydrochloride) [(2aa), 4-[(4-dipropylaminobutyl)amino]methylbenzonitrile hydrochloride] is 198 to 200 °C; for `CCCN(CCC)CCCCNCc1ccc(CN)cc1.Cl` it is 205 to 210 °C.

The test system of a further data set is Pseudoperonospora cubensis. The data set can be described thus: Protection test of Pseudoperonospora cubensis on cucumber cotyledons. Format: in vivo. As to conditions: 144 h, spraying concentration 1000 ppm, water dispersible powder sprayed onto cucumber cotyledons (var. Sagami-Hanjiro) one day before inoculation, incidence scored six days after inoculation, read-out: Protective value. As to the method: Water dispersible powders were prepared in the same manner as in Formulation Example 2 using the compound (2a), (2aa), (2b), (2ba), (15), (16), (17), (18), (19), or (20). The each water dispersible powder was diluted with water to a predetermined concentration (1000 mg/l) and suspended. The diluted suspension was sprayed onto cucumber cotyledons (var. Sagami-Hanjiro) grown in a rectangular plastic pot (6.4 cm×6.4 cm) at 100 1/10 a. After air-drying the sprayed leaves one day, a Pseudoperonospora cubensis spore suspension was sprayed onto the leaves to inoculate, and the leaves were maintained at 25° C. under high humidity conditions. After six days from the inoculation, the incidence of Pseudoperonospora cubensis was investigated according to the following criteria. The protective value is calculated according to the following equation 1.
Protective value(%)=(1−average incidence in sprayed area/average incidence in non-sprayed area)×100 [Equation 1]
Regarding `CCCN(CCC)CCCCN(C)Cc1ccc(C#N)cc1` [(2b), 4-[(4-dipropylaminobutyl)methylamino]methylbenzonitrile], the pest or weed control at 1000 ppm worked out at 100%.
On the same count and under the same terms, the value for `CCCN(CCC)CCCCN(Cc1ccc(C#N)cc1)Cc1ccc(N(CC)CC)cc1` [(16), 4-{[(4-diethylaminobenzyl)-(4-dipropylaminobutyl)amino]methyl}benzonitrile] was 100%.
As to `CCCN(CCC)CCCCN(Cc1ccc(C#N)cc1)Cc1ccc(C)o1` [(17), 4-{[(4-dipropylaminobutyl)-(5-methylfuran-2-ylmethyl)amino]methyl}benzonitrile], the pest or weed control at 1000 ppm stood at 100%.
On the same count and under the same terms, the value for `CCCN(CCC)CCCCN(Cc1ccc(Br)cc1)Cc1ccc(C#N)cc1` [(15), 4-{[(4-bromobenzyl)-(4-dipropylaminobutyl)amino]methyl}benzonitrile] was 100%.
For `CCCN(CCC)CCCCN(CC(=O)OCc1ccccc1)Cc1ccc(C#N)cc1` [(20), [(4-cyanobenzyl)-(4-dipropylaminobutyl)amino]benzyl acetate], the pest or weed control at 1000 ppm worked out at 100%.
Same read-out and setting: the figure for `CCCN(CCC)CCCCNCc1ccc(C#N)cc1` [(2a), 4-[(4-dipropylaminobutyl)amino]methylbenzonitrile] is 100%.
Consider `CCCN(CCC)CCCCN(Cc1ccc(C#N)cc1)Cc1ccc[nH]1` [(18), 4-{[(4-dipropylaminobutyl)-(1H-pyrrol-2-ylmethyl)amino]methyl}benzonitrile], for which the pest or weed control at 1000 ppm was 100%.
Turning to `CCCN(CCC)CCCCN(Cc1ccc(C#N)cc1)Cc1ccc(OC)cc1` [(19), 4-{[(4-dipropylaminobutyl)-(4-methoxybenzyl)amino]-methyl}-benzonitrile], the pest or weed control at 1000 ppm was 90%.
